PMC5802362 (Amino acids, 2016)

How the values were obtained:
[1] = molecular target: butyrylcholinesterase (Equus caballus, UniProt P81908); experiment: Inhibition constant; assay type: biochemical, equine; conditions: BChE, 100 µM butyrylthiocholine, 2 % methanol, 25 °C, pH 7.5
[2] = tested on: BChE and AChE; conditions: ref Saxena et al. 1997; cited from earlier work
[3] = calculated with VOIDOO; ref Saxena et al. 1997; cited from earlier work

Sequence of butyrylcholinesterase (P81908 whole entry): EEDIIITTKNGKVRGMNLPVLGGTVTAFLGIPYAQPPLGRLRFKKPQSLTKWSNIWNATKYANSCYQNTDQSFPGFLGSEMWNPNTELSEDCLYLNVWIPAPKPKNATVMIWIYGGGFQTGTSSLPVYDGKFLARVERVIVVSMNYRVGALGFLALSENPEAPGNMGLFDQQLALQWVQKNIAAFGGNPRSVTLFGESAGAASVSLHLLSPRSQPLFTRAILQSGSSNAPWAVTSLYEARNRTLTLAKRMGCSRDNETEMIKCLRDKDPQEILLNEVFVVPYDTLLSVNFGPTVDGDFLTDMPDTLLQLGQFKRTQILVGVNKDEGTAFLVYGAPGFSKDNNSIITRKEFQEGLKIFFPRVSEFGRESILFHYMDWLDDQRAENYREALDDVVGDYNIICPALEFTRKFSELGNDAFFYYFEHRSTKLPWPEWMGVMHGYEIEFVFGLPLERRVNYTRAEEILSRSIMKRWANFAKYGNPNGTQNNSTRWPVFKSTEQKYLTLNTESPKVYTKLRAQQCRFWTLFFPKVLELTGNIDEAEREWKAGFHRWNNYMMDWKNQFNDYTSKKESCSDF

Row | SMILES | Ki [1] [µM] | Difference in the KI value between BChE and AChE [2] [fold] | van der Waals volume [3] [Å^3]
1 | O=C(N[C@@H](Cc1ccccc1)C(=O)O)OCC1c2ccccc2-c2ccccc21 [Fmoc-Phe-O^−] | 330 ± 15 |  | 
2 | NCCCC[C@H](NC(=O)OCC1c2ccccc2-c2ccccc21)C(=O)O [Fmoc-Lys-O^−] | 150 ± 10 |  | 
3 | CC[C@H](C)[C@H](NC(=O)OCC1c2ccccc2-c2ccccc21)C(=O)O [Fmoc-Ile-O^−] | 194 ± 13 |  | 
4 | CC(C)C[C@H](NC(=O)OCC1c2ccccc2-c2ccccc21)C(=O)O [Fmoc-Leu-O^−] | 115 ± 11 |  | 
5 | O=C(N[C@@H](Cc1c[nH]c2ccccc12)C(=O)O)OCC1c2ccccc2-c2ccccc21 [Fmoc-Trp-O^−] | 193 ± 21 |  | 
6 | NCCCC[C@H](NC(=O)OCc1ccccc1)C(=O)O [Cbz-Lys-O^−] | 1540 ± 502 |  | 
7 | CC(C)C[C@H](NC(=O)OCc1ccccc1)C(=O)O [Cbz-Leu-O^−] | 1150 ± 130 |  | 
8 | CC(C)[C@H](NC(=O)OCC1c2ccccc2-c2ccccc21)C(=O)O [Fmoc-Val-O^−] | 313 ± 14 |  | 
9 | O=C(N[C@@H](Cc1ccc(O)cc1)C(=O)O)OCC1c2ccccc2-c2ccccc21 [Fmoc-Tyr-O^−] | 307 ± 13 |  | 
10 | CCN(CC)C(C)CN1c2ccccc2Sc2ccccc21 (centres unmarked) [ethopropazine] |  | 9000 | 317.6
